Test results: PubChem BioAssay AID256 (DTP/NCI, 2004)
Values joined by “and” are separate entries in the source; they are usually repeats but may differ in a detail not shown here. Identical values can stand only once. Inconclusive results and toxic doses are left out.

System: CD2F1 mice, L1210 leukemia ip, survival T/C
Test: NCI In Vivo Anticancer Drug Screen. Data for tumor model L1210 Leukemia (intraperitoneal) in CD2F1 (CDF1) mice
Settings: higher = longer survival
Summary of the method: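 Implant tumor; dose compound or vehicle; measure endpoint in both groups; report treated divided by control.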

[1] = endpoint: mean survival time, dose: 25.0 mg/kg/injection, schedule: Q01DX009 (ip), vehicle: saline
[2] = endpoint: mean survival time, dose: 50.0 mg/kg/injection, schedule: Q01DX009 (ip), vehicle: saline
[3] = endpoint: mean survival time, dose: 100.0 mg/kg/injection, schedule: Q01DX009 (ip), vehicle: saline
[4] = endpoint: mean survival time, dose: 200.0 mg/kg/injection, schedule: Q01DX009 (ip), vehicle: saline
[5] = endpoint: mean survival time, dose: 12.5 mg/kg/injection, schedule: Q01DX009 (ip), vehicle: saline with Tween-80
[6] = endpoint: mean survival time, dose: 25.0 mg/kg/injection, schedule: Q01DX009 (ip), vehicle: saline with Tween-80
[7] = endpoint: mean survival time, dose: 50.0 mg/kg/injection, schedule: Q01DX009 (ip), vehicle: saline with Tween-80
[8] = endpoint: mean survival time, dose: 100.0 mg/kg/injection, schedule: Q04DX003 (ip), vehicle: saline with Tween-80
[9] = endpoint: mean survival time, dose: 200.0 mg/kg/injection, schedule: Q04DX003 (ip), vehicle: saline with Tween-80
[10] = endpoint: mean survival time, dose: 100.0 mg/kg/injection, schedule: Q01DX009 (ip), vehicle: saline with Tween-80
[11] = endpoint: mean survival time, dose: 200.0 mg/kg/injection, schedule: Q01DX009 (ip), vehicle: saline with Tween-80
[12] = endpoint: mean survival time, dose: 400.0 mg/kg/injection, schedule: Q01DX009 (ip), vehicle: saline with Tween-80
[13] = endpoint: mean survival time, dose: 400.0 mg/kg/injection, schedule: Q04DX003 (ip), vehicle: saline with Tween-80
[14] = endpoint: mean survival time, dose: 50.0 mg/kg/injection, schedule: Q04DX003 (ip), vehicle: saline with Tween-80

CN1C2CCC1C(Br)C(=O)C2 (configuration not stated)
T/C (endpoint: median survival time, dose: 25.0 mg/kg/injection, schedule: Q01DX009 (ip), vehicle: saline): 102 % of control | T/C (endpoint: median survival time, dose: 50.0 mg/kg/injection, schedule: Q01DX009 (ip), vehicle: saline): 105 % of control | T/C (endpoint: median survival time, dose: 100.0 mg/kg/injection, schedule: Q01DX009 (ip), vehicle: saline): 105 % of control | T/C (endpoint: median survival time, dose: 200.0 mg/kg/injection, schedule: Q01DX009 (ip), vehicle: saline): 101 % of control

Cc1ccc(/C=N/N2C(=O)CSC2=S)cc1
T/C (endpoint: mean survival time, dose: 75.0 mg/kg/injection, schedule: Q01DX001 (ip), vehicle: other): 102 % of control | T/C (endpoint: mean survival time, dose: 150.0 mg/kg/injection, schedule: Q01DX001 (ip), vehicle: other): 97 % of control

O=C(O)c1ccc(P(=O)(O)O)cc1[N+](=O)[O-]
T/C [1]: 91 % of control | T/C [2]: 86 % of control

c1ccc(CN2CCOC2)cc1
T/C (endpoint: mean survival time, dose: 12.5 mg/kg/injection, schedule: Q01DX009 (ip), vehicle: saline): 95 % of control and 101 % of control | T/C [1]: 97 % of control and 101 % of control | T/C [2]: 100 % of control and 106 % of control | T/C [3]: 104 % of control and 106 % of control | T/C [4]: 95 % of control and 106 % of control

Cc1cc2nc(Cc3ccccc3)[nH]c2cc1C
T/C [5]: 102 % of control | T/C [6]: 95 % of control | T/C [7]: 91 % of control | T/C [8]: 94 % of control | T/C [9]: 86 % of control

CCCCCCCCCCCCCCCC(=O)OCC1OC(n2ccc(N)nc2=O)C(O)C1O (configuration not stated)
T/C (endpoint: mean survival time, dose: 6.25 mg/kg/injection, schedule: Q01DX008 (ip), vehicle: saline): 320 % of control | T/C (endpoint: mean survival time, dose: 12.5 mg/kg/injection, schedule: Q01DX008 (ip), vehicle: saline): 377 % of control | T/C (endpoint: mean survival time, dose: 16.0 mg/kg/injection, schedule: Q01DX008 (oral), vehicle: saline): 117 % of control | T/C (endpoint: mean survival time, dose: 16.0 mg/kg/injection, schedule: Q03HX024 (oral), vehicle: saline with Tween-80): 202 % of control | T/C (endpoint: mean survival time, dose: 20.0 mg/kg/injection, schedule: Q01DX009 (ip), vehicle: saline with Tween-80): 479 % of control | T/C (endpoint: mean survival time, dose: 25.0 mg/kg/injection, schedule: Q01DX001 (ip), vehicle: saline with Tween-80): 150 % of control | T/C (endpoint: mean survival time, dose: 25.0 mg/kg/injection, schedule: Q01DX008 (ip), vehicle: saline): 491 % of control | T/C [6]: 484 % of control | T/C (endpoint: mean survival time, dose: 30.0 mg/kg/injection, schedule: Q01DX009 (ip), vehicle: saline with Tween-80): 184 % of control | T/C (endpoint: mean survival time, dose: 32.0 mg/kg/injection, schedule: Q03HX024 (oral), vehicle: saline with Tween-80): 235 % of control | T/C (endpoint: mean survival time, dose: 50.0 mg/kg/injection, schedule: Q01DX001 (ip), vehicle: saline with Tween-80): 192 % of control | T/C (endpoint: mean survival time, dose: 50.0 mg/kg/injection, schedule: Q01DX008 (ip), vehicle: saline): 285 % of control | T/C (endpoint: mean survival time, dose: 64.0 mg/kg/injection, schedule: Q03HX024 (oral), vehicle: saline with Tween-80): 265 % of control | T/C (endpoint: mean survival time, dose: 100.0 mg/kg/injection, schedule: Q01DX001 (ip), vehicle: saline with Tween-80): 312 % of control | T/C (endpoint: mean survival time, dose: 125.0 mg/kg/injection, schedule: Q01DX001 (ip), vehicle: saline with Tween-80): 580 % of control | T/C (endpoint: mean survival time, dose: 128.0 mg/kg/injection, schedule: Q01DX001 (oral), vehicle: saline with Tween-80): 102 % of control | T/C (endpoint: mean survival time, dose: 128.0 mg/kg/injection, schedule: Q01DX008 (oral), vehicle: saline): 151 % of control | T/C (endpoint: mean survival time, dose: 128.0 mg/kg/injection, schedule: Q03HX024 (oral), vehicle: saline with Tween-80): 295 % of control | T/C (endpoint: mean survival time, dose: 128.0 mg/kg/injection, schedule: Q04DX003 (oral), vehicle: saline): 119 % of control | T/C (endpoint: mean survival time, dose: 150.0 mg/kg/injection, schedule: Q01DX001 (ip), vehicle: saline with Tween-80): 608 % of control | T/C (endpoint: mean survival time, dose: 200.0 mg/kg/injection, schedule: Q01DX001 (ip), vehicle: saline with Tween-80): 612 % of control | T/C (endpoint: mean survival time, dose: 250.0 mg/kg/injection, schedule: Q01DX001 (ip), vehicle: saline with Tween-80): 214 % of control | T/C (endpoint: mean survival time, dose: 256.0 mg/kg/injection, schedule: Q01DX001 (oral), vehicle: saline with Tween-80): 101 % of control | T/C (endpoint: mean survival time, dose: 300.0 mg/kg/injection, schedule: Q01DX001 (ip), vehicle: saline with Tween-80): 83 % of control | T/C (endpoint: mean survival time, dose: 512.0 mg/kg/injection, schedule: Q01DX001 (oral), vehicle: saline with Tween-80): 108 % of control | T/C (endpoint: mean survival time, dose: 512.0 mg/kg/injection, schedule: Q01DX009 (oral), vehicle: saline): 169 % of control | T/C (endpoint: mean survival time, dose: 1024.0 mg/kg/injection, schedule: Q01DX001 (oral), vehicle: saline with Tween-80): 109 % of control | T/C (endpoint: mean survival time, dose: 1024.0 mg/kg/injection, schedule: Q01DX009 (oral), vehicle: saline): 177 % of control

Nc1c(Cl)cccc1C(=O)c1ccccc1C(=O)O
T/C [10]: 97 % of control | T/C [8]: 101 % of control | T/C [11]: 95 % of control | T/C [9]: 101 % of control | T/C [12]: 101 % of control | T/C [13]: 103 % of control

CC(C)(C)NC(=S)Nc1ccccc1
T/C [14]: 100 % of control | T/C [8]: 94 % of control | T/C [9]: 91 % of control

S=c1nn[nH]n1-c1ccccc1
T/C [3]: 103 % of control | T/C [4]: 109 % of control

C=C1CC23CC1(O)CCC2C12C=CCC(C)(C(=O)O1)C2C3C(=O)O (configuration not stated)
T/C [10]: 91 % of control | T/C [11]: 95 % of control | T/C [12]: 91 % of control

CC1OC(Sc2ncnc3nc[nH]c23)C(O)C(O)C1O (configuration not stated)
T/C (endpoint: median survival time, dose: 12.5 mg/kg/injection, schedule: Q01DX005 (ip), vehicle: saline with Tween-80): 105 % of control | T/C (endpoint: median survival time, dose: 25.0 mg/kg/injection, schedule: Q01DX005 (ip), vehicle: saline with Tween-80): 107 % of control | T/C (endpoint: median survival time, dose: 50.0 mg/kg/injection, schedule: Q01DX005 (ip), vehicle: saline with Tween-80): 103 % of control and 109 % of control | T/C (endpoint: median survival time, dose: 100.0 mg/kg/injection, schedule: Q01DX005 (ip), vehicle: saline with Tween-80): 122 % of control | T/C (endpoint: median survival time, dose: 200.0 mg/kg/injection, schedule: Q01DX005 (ip), vehicle: saline with Tween-80): 150 % of control and 151 % of control | T/C (endpoint: median survival time, dose: 400.0 mg/kg/injection, schedule: Q01DX005 (ip), vehicle: saline with Tween-80): 170 % of control

O=S(=O)(Oc1ccccc1)c1c(F)c(F)c(F)c(F)c1F
T/C [6]: 94 % of control | T/C [7]: 94 % of control | T/C [10]: 90 % of control | T/C [8]: 95 % of control

CCCCCCCCCCCCCCNC(=O)C[N+](C)(C)Cc1ccccc1
T/C (endpoint: mean survival time, dose: 0.25 mg/kg/injection, schedule: Q01DX009 (ip), vehicle: saline sonified): 101 % of control | T/C (endpoint: mean survival time, dose: 0.5 mg/kg/injection, schedule: Q01DX009 (ip), vehicle: saline sonified): 95 % of control | T/C (endpoint: mean survival time, dose: 1.0 mg/kg/injection, schedule: Q01DX009 (ip), vehicle: saline sonified): 95 % of control | T/C (endpoint: mean survival time, dose: 5.0 mg/kg/injection, schedule: Q04DX003 (ip), vehicle: saline): 96 % of control | T/C (endpoint: mean survival time, dose: 10.0 mg/kg/injection, schedule: Q04DX003 (ip), vehicle: saline): 96 % of control

N#Cc1nc(C#N)c(Sc2ccccc2)c(Sc2ccccc2)c1Sc1ccccc1
T/C (endpoint: mean survival time, dose: 3.12 mg/kg/injection, schedule: Q01DX009 (ip), vehicle: saline with Tween-80): 103 % of control and 104 % of control | T/C (endpoint: mean survival time, dose: 6.25 mg/kg/injection, schedule: Q01DX009 (ip), vehicle: saline with Tween-80): 94 % of control and 100 % of control | T/C [5]: 94 % of control | T/C [6]: 96 % of control and 102 % of control | T/C [7]: 90 % of control and 102 % of control | T/C [10]: 96 % of control and 103 % of control

COc1cc2c(cc1OC)C1Cc3ccc4cc(OC)c(OC)cc4c3CN1CC2 (configuration not stated)
T/C [3]: 94 % of control | T/C [8]: 102 % of control | T/C [9]: 93 % of control | T/C [13]: 94 % of control

O=C1C=C(Nc2ccc([N+](=O)[O-])cc2)c2ccccc2C1=O
T/C (endpoint: mean survival time, dose: 75.0 mg/kg/injection, schedule: Q01DX001 (ip), vehicle: saline): 95 % of control | T/C (endpoint: mean survival time, dose: 150.0 mg/kg/injection, schedule: Q01DX001 (ip), vehicle: saline): 91 % of control

COC(=O)c1cc(C2OC3OC(C)(C)OC3C2OCc2ccccc2)nn1-c1ccc([N+](=O)[O-])cc1 (configuration not stated)
T/C (endpoint: median survival time, dose: 11.5 mg/kg/injection, schedule: Q01DX005 (ip), vehicle: other): 101 % of control | T/C (endpoint: median survival time, dose: 23.0 mg/kg/injection, schedule: Q01DX005 (ip), vehicle: other): 100 % of control | T/C (endpoint: median survival time, dose: 46.0 mg/kg/injection, schedule: Q01DX005 (ip), vehicle: other): 100 % of control | T/C (endpoint: median survival time, dose: 92.0 mg/kg/injection, schedule: Q01DX005 (ip), vehicle: other): 100 % of control

CC(=O)Nc1ccc(OC(C)=O)cc1
T/C (endpoint: mean survival time, dose: 25.0 mg/kg/injection, schedule: Q04DX003 (ip), vehicle: saline with Tween-80): 97 % of control | T/C [14]: 97 % of control | T/C [8]: 101 % of control

Cc1cccc(C)c1NC(=S)N1CCC(CCCC2CCN(C(=S)Nc3c(C)cccc3C)CC2)CC1
T/C [8]: 105 % of control | T/C [9]: 96 % of control | T/C [13]: 96 % of control
